The values below come from publication PMC7946679, “Selective cytotoxicity of epidithiodiketopiperazine DC1149B, produced by marine-derived Trichoderma lixii on the cancer cells adapted to glucose starvation” (Journal of Natural Medicines, 2019).

Converted amounts (≈) assume the structure as drawn. Where only a bound is given, the exact number is not on record here.

One data set deals with T1, mitochondrial Complex II (Bos taurus, UniProt P31039+P35720+Q3T189+Q95123).
T1 construct: purchased Cayman Chemical
Briefly: Mito Check Complex Activity Assay Kit, complex II. The data set is classed as biochemical. The settings on record: mitochondrial electron transport chain. The source says: (§1) Dulbecco’s Modified Eagle’s medium (DMEM), WST-8 colorimetric reagent, and KCN were purchased from Nacalai Tesque, Inc. (Kyoto, Japan). Fetal bovine serum (FBS) and Dialyzed FBS were purchased from Equitech-Bio Inc. (Kerrville, TX, USA) and Thermo Fisher Scientific Inc. (Waltham, MA, USA), respectively. Anti-Akt, Anti-phosphorylated Akt, anti-GRP78, and anti-β-actin antibodies were obtained from Cell Signaling Technology, Inc. (Danvers, MA, USA). Horseradish peroxidase (HRP)-linked anti-rabbit IgG antibody (GE Healthcare Life Sciences, Buckinghamshire, UK) was used as secondary antibody. Mito Check Complex Activity Assay Kit (Cayman Chemical, Ann Arbor, MI, USA) was used to evaluate the effect of compound 1 on the mitochondrial complex I–V. Oxygen consumption of cells was measured by Oxygen Consumption Rate (OCR) Assay Kit (Cayman Chemical, Ann Arbor, MI, USA). Rotenone, thenoyltrifluoroacetone (TTFA), carbonyl cyanide m-chlorophenylhydrazone (CCCP), antimycin A, and oligomycin A were obtained from Tokyo Chemical Industry Co., LTD. […]
(§2) Antimycin A is a known inhibitor of complex III in the mitochondrial electron transport chain [17]. […] We also evaluated the effect of compound 1 on the oxygen consumption of PANC-1 cells cultured in the Glucose Deficient Medium.

Data set [1] deals with human pancreatic carcinoma PANC-1 cells. The data set is described as follows: Cytotoxicity (WST-8) against PANC-1 cells in Glucose Deficient or General Glucose Medium. Conditions: for IC50: Homo sapiens; for IC50 / IC50 Glucose (−): PANC-1 cells, 12 h with sample, WST-8; for S.I. (Selective index): IC50 General Glucose Medium versus IC50 Glucose Deficient Medium, PANC-1. Format: cell-based. How it is done: Human pancreatic carcinoma cell line PANC-1 was maintained in the DMEM supplemented with heat-inactivated 10% FBS and kanamycin (50 µg/ml) in a humidified atmosphere with 5% CO2 at 37 °C. To induce nutrient starvation, PANC-1 cells were cultured in the Glucose Deficient Medium [Basal Medium (25 mM HEPES buffer (pH 7.4) supplemented with 6.4 g/l NaCl, 700 mg/l NaHCO3, 400 mg/l KCl, 265 mg/l CaCl2·2H2O, 200 mg/l MgSO4·7H2O, 125 mg/l NaH2PO4, 0.1 mg/l Fe(NO3)·9H2O, 15 mg/l Phenol red, 10 mL/l MEM vitamin solution (X100) (GIBCO, Carlsbad, CA), 200 mmol/l L-glutamine solution (GIBCO, Carlsbad, CA), and 25 mg/l kanamycin) containing 10% dialyzed FBS]. The General Glucose Medium [Basal Medium supplemented with 10% FBS and […] glucose (final 25 mM)] was also used for control cells.
The bioassay was carried out according to a method described previously. Briefly, PANC-1 cells (1 × 10^4 cells/100 µl in 96 well plastic plate) were pre-incubated in the DMEM supplemented with 10% FBS for 24 h. The medium was then replaced with either the General Glucose Medium or Glucose Deficient Medium to induce cells adaption to the nutrient starvation. After 12-h incubation, the serially diluted samples were added, and the cells were incubated for an additional 12 h in a humidified atmosphere with 5% CO2 at 37 °C. The cell proliferation was detected using the WST-8 colorimetric reagent. The IC50 value was determined by linear interpolation from the growth inhibition curve. We assessed the selectivity of the cytotoxic activity (Selective Index, S.I.) based on the difference in the IC50 values obtained for experiments with General Glucose Media and Glucose Deficient Media.
For orientation: Tetrazolium dyes change colour on reduction, which living cells bring about.

In the next data set the test system is PANC-1 cells. The data set is described as follows: Oxygen consumption rate of PANC-1 cells (OCR Assay Kit). The settings on record: PANC-1 cells in General Glucose Medium, phosphorescent probe, 180 min. Format: cell-based, human. How it is done: Oxygen consumption rate of PANC-1 cells was assayed using OCR Assay Kit (Cayman Chemical, Ann Arbor, MI, USA) as per the manufacturer’s instructions. Briefly, pre-cultured PANC-1 cells (8.0 × 10^4 cells) in the black, clear bottom 96-well plate (Corning Incorporated, NY, USA) were incubated with General Glucose Medium for 18 h at 37 °C. The cells were replenished with 140 µl of fresh medium, and the test compound was added. This was followed by adding the phosphorescent probe to measure the oxygen consumption. 100 µl of mineral oil was added in each well to restrict oxygen diffusion. The signals were measured by an Infinite M1000 microplate reader (Tecan Group Ltd., Mannedorf, Switzerland) using time-resolved mode at Ex 380 nm and Em 650 nm for 180 min with 1-min time interval. The linear regression was applied after subtracting the blank, and the oxygen consumption rate was indicated by the slope of each signal profile.

A further data set deals with GRP78. Briefly: Western blotting, induction of GRP78 in PANC-1 cells. The data set is classed as cell-based, human. The settings on record: PANC-1 in Glucose Deficient Medium, lowest test concentration 0.02 µM, 12 h, western blot. How it is done:
(§3) PANC-1 cells (3 × 10^5 cells/2 ml in 6-well plastic plate) were pre-incubated in the DMEM supplement with 10% FBS for 24 h. The medium was then replaced with either General Glucose or Glucose Deficient Medium. […] Subsequently, the cells were rinsed with ice-cold PBS and lysed in the lysis buffer [50 mM Tris–HCl (pH 8.0) containing 150 mM NaCl, 5 mM EDTA, 1% glycerol, 1% NP-40, 1% protease inhibitor cocktail, and 1% phosphatase inhibitor cocktail]. The cell lysate was analyzed by SDS-PAGE and transferred onto PVDF membranes (GE Healthcare Life Sciences Buckinghamshire, UK). The membranes were then incubated with appropriate primary antibodies followed by HRP-conjugated secondary antibodies, and the immunopositive bands were visualized using an ECL kit (GE Healthcare Life Sciences). The luminescent signals were analyzed using an Image Quant LAS4010 Scanner (GE Healthcare Life Sciences).
(In western blotting, separated proteins are transferred to a membrane and probed.)

Data set [2] concerns Akt and phosphorylated Akt. The data set is described as follows: Western blotting, Akt signaling in PANC-1 cells. The data set is classed as cell-based, human. Conditions: PANC-1 in Glucose Deficient Medium, 0.02–0.3 µM, 12 h, western blot. How it is done: as §3
The target in a further data set is mitochondrial Complex I (Bos taurus, UniProt P03887+P17694+P42026). The data set is described as follows: biochemical. Conditions: mitochondrial electron transport chain.
Data set [3] has as its target mitochondrial Complex II/III (Bos taurus, UniProt P00125+P00157+P13272). The data set is described as follows: Mito Check Complex Activity Assay Kit, complex II/III. The data set is classed as biochemical. The settings on record: mitochondrial electron transport chain.
Description: as §1, §2

The target of the next data set is mitochondrial Complex IV (Bos taurus, UniProt P00396+P68530). Briefly: Mito Check Complex Activity Assay Kit, complex IV. Format: biochemical. Conditions: mitochondrial electron transport chain.
Description: as §1, §2

A further data set deals with mitochondrial Complex V (Bos taurus, UniProt P00829+P00847+P19483+P32876). The data set is described as follows: Mito Check Complex Activity Assay Kit, complex V. Format: biochemical. The settings on record: mitochondrial electron transport chain.
Description: as §1, §2

The subject of data set [4] is rat adrenal pheochromocytoma cell line PC12. The settings on record: PC12 cells, cited from earlier work.
Data set [5] has as its system human cervix epithelioid carcinoma HeLa cells. The settings on record: cited from earlier work.
For data set [6], the system named is human leukemic Jurkat cell line. Conditions: read-out: IC50 cytotoxicity Jurkat; cited from earlier work.

T1 sequence (P31039 44-665): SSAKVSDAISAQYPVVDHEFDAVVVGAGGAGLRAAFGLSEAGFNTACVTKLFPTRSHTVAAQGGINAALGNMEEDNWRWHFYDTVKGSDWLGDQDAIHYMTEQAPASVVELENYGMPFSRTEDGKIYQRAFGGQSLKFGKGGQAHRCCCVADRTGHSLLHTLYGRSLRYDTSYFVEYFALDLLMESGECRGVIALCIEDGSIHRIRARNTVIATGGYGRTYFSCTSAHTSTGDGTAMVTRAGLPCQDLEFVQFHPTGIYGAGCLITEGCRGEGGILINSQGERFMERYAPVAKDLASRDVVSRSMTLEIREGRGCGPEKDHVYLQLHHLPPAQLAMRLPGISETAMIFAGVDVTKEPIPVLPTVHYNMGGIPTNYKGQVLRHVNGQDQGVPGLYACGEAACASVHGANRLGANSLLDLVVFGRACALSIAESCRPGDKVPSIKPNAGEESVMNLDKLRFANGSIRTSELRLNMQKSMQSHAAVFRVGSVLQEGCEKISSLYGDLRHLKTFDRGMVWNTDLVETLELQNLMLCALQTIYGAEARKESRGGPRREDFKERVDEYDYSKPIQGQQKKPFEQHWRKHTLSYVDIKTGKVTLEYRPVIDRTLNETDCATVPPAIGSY
T1 sequence (Q3T189 29-280): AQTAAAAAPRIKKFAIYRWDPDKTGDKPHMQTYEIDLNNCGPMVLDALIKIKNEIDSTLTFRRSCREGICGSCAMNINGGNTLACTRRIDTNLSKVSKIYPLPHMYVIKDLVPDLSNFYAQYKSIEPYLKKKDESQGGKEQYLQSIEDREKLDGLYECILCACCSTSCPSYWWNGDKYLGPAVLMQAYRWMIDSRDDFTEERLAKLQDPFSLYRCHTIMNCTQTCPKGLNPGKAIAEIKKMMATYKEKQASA
T1 sequence (P35720 30-169): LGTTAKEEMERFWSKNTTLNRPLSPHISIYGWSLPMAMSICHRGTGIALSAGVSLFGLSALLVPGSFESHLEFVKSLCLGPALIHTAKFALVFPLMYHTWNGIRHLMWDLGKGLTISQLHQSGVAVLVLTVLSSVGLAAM
T1 sequence (Q95123 56-158): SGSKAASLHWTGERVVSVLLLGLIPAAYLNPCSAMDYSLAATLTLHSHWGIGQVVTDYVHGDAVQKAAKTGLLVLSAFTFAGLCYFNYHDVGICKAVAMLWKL

One may read the IC50 as the concentration needed to halve the response being measured. `O=C(CC(=O)C(F)(F)F)c1cccs1` [thenoyltrifluoroacetone, reference compound] returned an IC50 on mitochondrial Complex II of 65 µM.

Turning to `COc1ccc2cc(NC(=O)C3=NO[C@H]4[C@H](O)C=C[C@@H](O)[C@@]4(O)C3)c(=O)oc2c1OC` [Compound 2, trichodermamide A], the IC50 in [1] (General Glucose Medium) was > 1000 µM; in data set [1] (Glucose Deficient Medium), 270 µM. For the same molecule, the “S.I. (Selective index)” value in data set [1] is reported as > 3.7. Further, the “IC50 Glucose (−)” value in data set [1] (Glucose Deficient Medium) is given as “very weak”.

`N#CC(C#N)=NNc1cccc(Cl)c1` [CCCP, carbonyl cyanide m-chlorophenylhydrazone]: the “oxygen consumption of PANC-1 cells” value with PANC-1 cells is “showed the opposite effect to antimycin A”.

Regarding `COc1ccc2cc(NC(=O)C34CC5(O)C(C=CC(O)C5ON3)S4)c(=O)oc2c1OC` (stereo not drawn) [Compound 3, aspergillazine A], the concentration for half-maximal inhibition (IC50) in data set [1] (General Glucose Medium) was > 1000 µM. In data set [1] (Glucose Deficient Medium), the IC50 was > 1000 µM and the “IC50 Glucose (−)” value was “very weak”.

Take `CCCCCC[C@H]1C(=O)O[C@H](C)[C@H](NC(=O)c2cccc(NC=O)c2O)C(=O)O[C@@H](C)[C@@H]1OC(=O)CC(C)C` [Antimycin A, reference compound]: in data set [1] (Glucose Deficient Medium), the IC50 came to 0.0003 µM. Also, the “S.I. (Selective index)” value in data set [1] is 960,000. The “oxygen consumption of PANC-1 cells” value in the data set on PANC-1 cells is listed as “inhibited the oxygen consumption”.

With `COc1ccc(C2SSC34CC5(O)C(Cl)C=CC(O)C5ON3C(=O)C2NC4=O)c(O)c1OC` (stereo not drawn) [Compound 1, DC1149B], the half-maximal inhibitory concentration (IC50) was 710 µM in [1] (General Glucose Medium); 0.02 µM in [1] (Glucose Deficient Medium); > 30 µM against mitochondrial Complex I; 19 µM against mitochondrial Complex II; > 30 µM in data set [3]; > 30 µM against mitochondrial Complex IV. Also, the IC50 was > 30 µM on mitochondrial Complex V, 42.4 µM in data set [4] (read-out: IC50 cytotoxic activity PC12), 97.1 µM in data set [5] (read-out: IC50 cytotoxic activity HeLa) and 5.1 µM in data set [6]. Besides, the “expression of GRP78” value in the data set on GRP78 is reported as “decreased the expression of GRP78 in the nutrient-starved cells to the basal level”. In data set [2], the “levels of Akt and phosphorylated Akt” value is “reduced the levels of Akt and phosphorylated Akt in the nutrient-starved cells in a dose-dependent manner”. The “oxygen consumption of PANC-1 cells” value with PANC-1 cells is on record as “inhibited the oxygen consumption”. In [4], the “IC50 cytotoxic activity PC12” value was 21.9 µg/mL (≈ 42.4 µM). For the same molecule, the “IC50 cytotoxic activity HeLa” value in data set [5] is 50.1 µg/mL (≈ 96.9 µM).
